Converted amounts (≈) assume the structure as drawn.
What was measured:
Panelists [1] = test: Paired comparison human taste test, chocolate milk; assay type: in vivo
Procedure: Chocolate beverage powder can be prepared using, for example, the following ingredients and reconstituted in milk.
A KitchenAide mixer is equipped with a wire whip attachment and used for mixing sugar and salt for 5 seconds. Lecithin is added and the resulting mixture is mixed for an additional 5 seconds. Cocoa, maltodextrin, and vanillin are added and the mixture is mixed for another 10 seconds.
Chocolate milk preparations were prepared by combining a chocolate beverage mixture with milk and the appropriate amount of sugar, or sugar and 3-(4-amino-2,2-dioxide-1H-benzo[c][1,2,6]thiadiazin-5-yloxy)-2′,2′-dimethyl-N-propylpropanamide. 75.0 grams of Full Sugar Chocolate Beverage Powder was mixed into 250 mls of cold (40° F.) 2% lowfat milk and mixed with a wire whip until dissolved. 45.5 grams of the 50% Sugar Chocolate Beverage Powder was mixed into 250 mls of cold (40° F.) 2% lowfat milk and mixed with a wire whip until the powder was dissolve. The Compound A was dissolved into a 0.10% concentration level in propylene glycol and added to the chocolate milk, mixed with a wire whip until homogenous, about 2 minutes.

External panelists = test: Line scale sensory test, Example 6, fructose as sweetener, pH 7.1; assay type: in vivo, Human; set-up: Average Sweetness / Average Bitterness: scale not given here
Procedure: Sensory evaluations were performed using fructose as the sweetener and 3-(4-amino-2,2-dioxide-1H-benzo[c][1,2,6]thiadiazin-5-yloxy)-2′,2′-dimethyl-N-propylpropanamide as the sweetness enhancer, using methods similar to those using sucrose, above. […]

Panelists [2] = test: Paired comparison human taste test, frosted flakes cereal; assay type: in vivo
Procedure: Frosted Flakes cereals were prepared using the following ingredients and evaluated for sweetness. The sugar frosting contained a reduced amount of sucrose (compared to the “100% sucrose” sugar coated flake cereal) and 15 ppm of 3-(4-amino-2,2-dioxide-1H-benzo[c][1,2,6]thiadiazin-5-yloxy)-2′,2′-dimethyl-N-propylpropanamide.
A Kitchen Aide mixer is equipped with a wire whip attachment and used for mixing sugar and tapioca dextrin. Mix for 5 minutes. Dissolve gum arabic in water using a magnetic stir bar and stir plate. Mix for 1 minute. Add the remaining dry ingredients and compound (if necessary) and heat until the solution reaches 230° F. for 1 minute. The compound was solubilized in ethanol to a 0.30% concentration level before adding to the syrup; this gave a better homogeneity throughout the syrup.
Place weighed amount of corn flakes in the tumbler. Add desired amount of syrup as soon as the syrup is ready. Tumble for 30 minutes while heating the flakes with a heat gun. Further dry the flakes in the convection oven for 200° F. for 50 minutes.
Panelists evaluated the two cereal samples in a paired comparison taste test procedure and were instructed to select the sweeter of the two samples.

[3] = Solubility in buffers and food grade solvents (Table 14); assay type: physicochemical
Procedure: Solubility of 3-(4-amino-2,2-dioxide-1H-benzo[c][1,2,6]thiadiazin-5-yloxy)-2′,2′-dimethyl-N-propylpropanamide
Various solutions of 3-(4-amino-2,2-dioxide-1H-benzo[c][1,2,6]thiadiazin-5-yloxy)-2′,2′-dimethyl-N-propylpropanamide 3-(4-amino-2,2-dioxide-1H-benzo[c][1,2,6]thiadiazin-5-yloxy)-2′,2′-dimethyl-N-propylpropanamide were prepared as indicated below.

[4] = 33% Reduced Sucrose Frosted Flakes + 15 ppm compound chosen, 14 panelists

Solubility (ppm) ([3]; Citric Acid Buffer, pH 2.8): 50 ppm | Solubility (ppm) ([3]; Citric Acid Buffer, pH 4.0): 50 ppm | Solubility (ppm) ([3]; Ethanol): 3757 ppm | Solubility (ppm) ([3]; Glycerol): 2800 ppm | Solubility (ppm) ([3]; Phosphate Buffer, pH 7.1): 602 ppm | Solubility (ppm) ([3]; Propylene Glycol (PG)): 6096 ppm | Solubility (ppm) ([3]; Triacetin): 567 ppm | solubility ([3]; aqueous buffer, Citric Acid Buffer, pH 4.0): 140 µM (≈ 49.6 µg/mL) | solubility ([3]; citric acid buffer, pH 2.8, aqueous buffer): 140 µM (≈ 49.6 µg/mL) | solubility ([3]; ethanol, organic solvent or mixture): 10600 µM (≈ 3760 µg/mL) | solubility ([3]; glycerol, organic solvent or mixture): 7900 µM (≈ 2800 µg/mL) | solubility ([3]; organic solvent or mixture, Propylene Glycol (PG)): 17200 µM (≈ 6100 µg/mL) | solubility ([3]; phosphate buffer, pH 7.1, aqueous buffer): 1700 µM (≈ 603 µg/mL) | solubility ([3]; triacetin, organic solvent or mixture): 1600 µM (≈ 567 µg/mL)
Structure (SMILES): CCCNC(=O)C(C)(C)COc1cccc2c1C(N)=NS(=O)(=O)N2 [3-(4-amino-2,2-dioxide-1H-benzo[c][1,2,6]thiadiazin-5-yloxy)-2′,2′-dimethyl-N-propylpropanamide]
Sample selected as sweeter by panelists, Total (Panelists [1]; Chocolate Milk with 50% Sugar + compound (7 ppm/(20 μM)) chosen, vs 100% Sugar, n = 51): 28 | Sweetness comparison (conclusion) (Panelists [1]; chocolate milk with 50% Sugar + compound (7 ppm/(20 μM)) vs full sugar, p>0.10): not significantly different in sweetness | off tastes (External panelists; 25 μM compound in 6% fructose, LSB, pH 7.1): no significant off tastes | Average Sweetness (External panelists; 30 μM (10.6 ppm) compound, no fructose, pH 7.1, n = 30): 0.6 | off tastes (External panelists; 30.0 μM and 40 μM compound): no significant off tastes | Average Bitterness (External panelists; 30 μM compound, no fructose, n = 30): 0.4 | Sweetness vs fructose solutions (conclusion) (External panelists; 30.0 μM compound, p>0.10): not significantly different in sweetness compared to 0% and 2% fructose respectively | Average Sweetness (External panelists; 40 μM (14.2 ppm) compound, no fructose, pH 7.1, n = 30): 1.1 | Average Bitterness (External panelists; 40 μM compound, no fructose, n = 30): 0.6 | Sweetness vs fructose solutions (conclusion) (External panelists; 40 μM compound, p>0.10): not significantly different in sweetness compared to 0% and 2% fructose respectively | off tastes (External panelists; 100 μM compound in 6% fructose, LSB, pH 7.1): no significant off tastes | Average Sweetness (External panelists; 6% Fructose + 25 μM (8.9 ppm) compound, pH 7.1, n = 26): 7.8 | Average Bitterness (External panelists; 6% Fructose + 25 μM compound, n = 26): 0.2 | Average Sweetness (External panelists; 6% Fructose + 100 μM (35.4 ppm) compound, pH 7.1, n = 14): 9.2 | Average Bitterness (External panelists; 6% Fructose + 100 μM compound, n = 14): 0.3 | Sweetness vs fructose solutions (conclusion) (External panelists; 6% fructose + 25 μM compound, p>0.05): significantly sweeter than 6% fructose | Sweetness vs fructose solutions (conclusion) (External panelists; 6% fructose + 100 μM compound, p>0.10): not significantly different than 8% or 9% fructose | Sample selected as sweeter by panelists, Test 1 (Panelists [2]; [4]): 6 | Sample selected as sweeter by panelists, Test 2 (Panelists [2]; [4]): 9 | Sample selected as sweeter by panelists, Test 3 (Panelists [2]; [4]): 9 | Sample selected as sweeter by panelists, Total (Panelists [2]; 33% Reduced Sucrose Frosted Flakes + 15 ppm compound chosen, n = 42): 24 | Sweetness comparison (conclusion) (Panelists [2]; 33% Reduced Sucrose Frosted Flakes + 15 ppm compound vs 100% Sucrose Frosted Flakes): not significantly different in sweetness | aqueous solubility (conclusion) ([3]; aqueous buffers pH 2.8-7.1): pH dependent, and lower solubility was found at low pH

Reference: patent publication US8609173B2, “Compositions comprising sweetness enhancers and methods of making them” (Senomyx Inc., priority 2008, dated 2013)
